This is an account of results in patent US20250282785A1, “PYRROLIDINONE DERIVATIVES AS INHIBITORS OF NF KAPPA B INDUCING KINASE” (priority 2022, published 2025).

Test [1] has as its system p-IKKα levels in L363 (NIK translocated multiple myeloma) cells. Kind of test: Effect of compounds on p-IKKα levels in L363 cells (AlphaLISA SureFire Ultra). The test is classed as cell-based. Conditions: Homo sapiens, L-363; L363 cells, BAFF stimulated, MG132, 6 h; average of values; read-out: Assay 2 IC50. The method, boiled down:
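L363 myeloma cells were BAFF-stimulated (250 ng/ml) overnight in DMEM/0.5% BSA, then exposed 6 h at 37° C to compound (11-point 1:3 series, 0.3% DMSO) with BAFF plus 10 uM MG132. p-IKKα (Ser 176/180) was read by AlphaLISA SureFire Ultra in lysates. IC50 came from sigmoidal fits normalized to stimulated and unstimulated controls.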

In test [2] the target is Recombinant Human NF-Kappab-Inducing Kinase (NIK/MAP3K14) (Homo sapiens, UniProt Q99558). The experiment in a line: Inhibition of auto-phosphorylation of recombinant human NIK/MAP3K14 (AlphaScreen). The test is classed as biochemical. The following applies: NIK/MAP3K14 auto-phosphorylation, 5 microM ATP, 1 nM enzyme, 2 h at 25° C.; average of values; read-out: Assay 1 IC50. The method, boiled down: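 GST-tagged NIK (1 nM) auto-phosphorylation with 5 µM ATP in Tris pH 7.5/MgCl2 buffer, 0.7% DMSO, 2 h at 25 °C. Phospho-IKK Ser176/180 antibody detected by AlphaScreen beads. Signal normalized to full-enzyme and no-ATP controls; IC50 from sigmoidal fit of % inhibition vs log concentration.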
Sequence of Recombinant Human NF-Kappab-Inducing Kinase (NIK/MAP3K14) (Q99558 whole entry): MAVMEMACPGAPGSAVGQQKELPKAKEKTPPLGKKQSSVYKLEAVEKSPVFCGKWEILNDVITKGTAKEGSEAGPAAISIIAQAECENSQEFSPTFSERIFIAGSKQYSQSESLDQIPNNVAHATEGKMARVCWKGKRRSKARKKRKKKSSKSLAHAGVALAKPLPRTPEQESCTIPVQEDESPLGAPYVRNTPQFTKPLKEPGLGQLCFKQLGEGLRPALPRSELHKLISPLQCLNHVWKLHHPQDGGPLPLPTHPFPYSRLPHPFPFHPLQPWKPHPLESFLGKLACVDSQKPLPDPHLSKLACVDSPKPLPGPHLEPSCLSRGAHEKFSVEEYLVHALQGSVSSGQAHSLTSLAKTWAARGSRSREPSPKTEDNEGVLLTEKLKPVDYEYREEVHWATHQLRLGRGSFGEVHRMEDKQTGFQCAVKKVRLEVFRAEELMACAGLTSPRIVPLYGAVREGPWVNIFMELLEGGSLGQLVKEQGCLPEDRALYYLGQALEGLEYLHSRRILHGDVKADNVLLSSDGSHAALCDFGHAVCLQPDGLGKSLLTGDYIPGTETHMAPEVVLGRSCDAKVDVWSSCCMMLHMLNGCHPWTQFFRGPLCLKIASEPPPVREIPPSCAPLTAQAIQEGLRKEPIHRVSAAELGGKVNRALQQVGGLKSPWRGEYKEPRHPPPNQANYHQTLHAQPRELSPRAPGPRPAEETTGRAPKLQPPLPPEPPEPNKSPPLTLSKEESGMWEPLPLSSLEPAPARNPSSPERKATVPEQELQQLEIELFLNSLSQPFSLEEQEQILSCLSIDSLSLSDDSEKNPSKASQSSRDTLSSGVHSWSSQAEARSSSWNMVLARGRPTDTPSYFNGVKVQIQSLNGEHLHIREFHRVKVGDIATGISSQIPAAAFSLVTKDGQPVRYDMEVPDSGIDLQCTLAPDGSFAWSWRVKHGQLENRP

pIC50: −log10 of the molar value.

Take `COc1cc(C(N)=O)nc(-c2cccc(-c3cc([C@]4(O)CCN(C)C4=O)on3)c2)c1` [Example 8, (R)-6-(3-(5-(3-Hydroxy-1-methyl-2-oxopyrrolidin-3-yl)isoxazol-3-yl)phenyl)-4-methoxypicolinamide]: the pIC50 in test [1] is 6.30 to 7.00; in test [2], above 7.00.

Take `CN1CC[C@@](O)(c2cc(-c3cccc(-c4nc(C(N)=O)c5ccc(F)cc5n4)c3)no2)C1=O` [Example 158, (R)-7-Fluoro-2-(3-(5-(3-hydroxy-1-methyl-2-oxopyrrolidin-3-yl)isoxazol-3-yl)phenyl)quinazoline-4-carboxamide]: the pIC50 in test [1] is below 6.30; in test [2] it was above 7.00.

With `COc1ccc(-c2cccc(-c3cc([C@]4(O)CCN(C)C4=O)on3)c2)nc1C(N)=O` [Example 87, (R)-6-(3-(5-(3-Hydroxy-1-methyl-2-oxopyrrolidin-3-yl)isoxazol-3-yl)phenyl)-3-methoxypicolinamide], the pIC50 in test [1] and in test [2] was below 6.30 throughout.
